Ends that are not written are not given here.
Legend:
CHO-hERG = CHO-hERG (Homo sapiens, UniProt Q12809)
HEK-Kv4.3/KChIP2 = HEK-Kv4.3/KChIP2 (Homo sapiens, UniProt Q9NS61+Q9UK17); settings: CTP 0.1 to 30 µM; HEK cells; step to 40mV; 0.1% Pluronic F-68
hERG = hERG (Homo sapiens, UniProt Q12809); assay: in vitro; type: cell-based; settings: up to 30 µM
Procedure: Ion Channel Assays: Cell lines were grown, plated, and loaded with 1× loading buffer containing 1× dye and 2.5 mM freshly prepared probenecid. Assays were performed, and activity was measured using a FLIPR Tetra. Percent of activation and percent of inhibition were calculated to determine agonist and antagonist activity, respectively. […]
The FLIPR Potassium Assay Kit from Molecular Devices is used. It exploits the permeability of thallium ions (Tl+) through both voltage-and ligand-gated potassium (K+) channels. A novel, highly-sensiti ve
Tl+ indicator dye is utilized which produces a bright fluorescent signal upon the binding to Tl+ conducted through potassium chan-nels. […]
KINOMEscan® Assay fluorescence for improved signal/noise ratio.
The KINOMEscan screening platform employs a novel and propri- Membrane Potential Assay etary active site-directed competition binding assay to quantitatively The FLIPR® Membrane Potential Assay Kit is used which utilizes a pro-measure interactions between test compounds and the kinases. prietary fluorescent indicator dye in combination with a quencher to This robust and reliable assay technology affords investigators the reflect real-time membrane potential changes associated with ion ability to extensively annotate compounds with accurate, precise channel activation and ion transporter proteins. […]

COX1 = biological target: T1, COX1 (Homo sapiens, UniProt P23219); assay: COX1 enzymatic assay; type: biochemical; settings: up to 30 µM
T1 construct: purchased BPS Bioscience
T1 sequence (P23219 24-599): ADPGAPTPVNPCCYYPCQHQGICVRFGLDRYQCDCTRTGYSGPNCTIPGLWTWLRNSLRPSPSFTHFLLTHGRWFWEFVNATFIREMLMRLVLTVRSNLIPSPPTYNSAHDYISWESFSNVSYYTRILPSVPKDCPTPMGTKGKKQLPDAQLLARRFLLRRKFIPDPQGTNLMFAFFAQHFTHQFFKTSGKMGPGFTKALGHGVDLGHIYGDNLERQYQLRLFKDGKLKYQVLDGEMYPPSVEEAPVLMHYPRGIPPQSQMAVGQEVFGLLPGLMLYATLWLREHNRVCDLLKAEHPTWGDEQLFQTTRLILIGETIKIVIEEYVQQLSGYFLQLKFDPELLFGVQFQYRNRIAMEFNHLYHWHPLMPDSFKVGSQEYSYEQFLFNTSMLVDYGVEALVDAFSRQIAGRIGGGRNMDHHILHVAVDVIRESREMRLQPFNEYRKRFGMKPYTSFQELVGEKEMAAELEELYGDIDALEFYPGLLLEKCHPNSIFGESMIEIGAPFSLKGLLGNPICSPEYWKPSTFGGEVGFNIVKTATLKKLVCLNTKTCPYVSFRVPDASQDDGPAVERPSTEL
Procedure: Enzymatic Assays: AChE, COX1, COX2, MAOA, PDE3A, and PDE4D2 activity assays were performed to determine CTP effects on each individual enzyme. Fluorescence was read using a PerkinElmer Envision, and percentage inhibition and compound activity calculated. […]
in complementation with EA generating a unit of active β-gal and based assay for the detection of dopamine, norepinephrine or sero-production of a chemiluminescent signal upon the addition of Path- tonin transporter activity in cells expressing these transporters. The Hunter detection reagents. kit employs a fluorescent substrate that mimics the biogenic amine neurotransmitters that are taken into the cell through these specific transporters, resulting in increased intracellular fluorescence inten-sity. […]
KINOMEscan® Assay fluorescence for improved signal/noise ratio. […]
Compounds that bind the kinase active site and directly (sterically) be monitored within a single experiment. or indirectly (allosterically) prevent kinase binding to the immobi-lized ligand, will reduce the amount of kinase captured on the solid Calcium Assay […]
kinase have no effect on the amount of kinase captured on the of changes in intracellular calcium. […] Upon stimulation, a quantitative, precise and ultra-sensitive qPCR method that detects the receptor signals release of intracellular calcium, which results in the associated DNA label (D). […]

Chain of hERG (Q12809 whole entry): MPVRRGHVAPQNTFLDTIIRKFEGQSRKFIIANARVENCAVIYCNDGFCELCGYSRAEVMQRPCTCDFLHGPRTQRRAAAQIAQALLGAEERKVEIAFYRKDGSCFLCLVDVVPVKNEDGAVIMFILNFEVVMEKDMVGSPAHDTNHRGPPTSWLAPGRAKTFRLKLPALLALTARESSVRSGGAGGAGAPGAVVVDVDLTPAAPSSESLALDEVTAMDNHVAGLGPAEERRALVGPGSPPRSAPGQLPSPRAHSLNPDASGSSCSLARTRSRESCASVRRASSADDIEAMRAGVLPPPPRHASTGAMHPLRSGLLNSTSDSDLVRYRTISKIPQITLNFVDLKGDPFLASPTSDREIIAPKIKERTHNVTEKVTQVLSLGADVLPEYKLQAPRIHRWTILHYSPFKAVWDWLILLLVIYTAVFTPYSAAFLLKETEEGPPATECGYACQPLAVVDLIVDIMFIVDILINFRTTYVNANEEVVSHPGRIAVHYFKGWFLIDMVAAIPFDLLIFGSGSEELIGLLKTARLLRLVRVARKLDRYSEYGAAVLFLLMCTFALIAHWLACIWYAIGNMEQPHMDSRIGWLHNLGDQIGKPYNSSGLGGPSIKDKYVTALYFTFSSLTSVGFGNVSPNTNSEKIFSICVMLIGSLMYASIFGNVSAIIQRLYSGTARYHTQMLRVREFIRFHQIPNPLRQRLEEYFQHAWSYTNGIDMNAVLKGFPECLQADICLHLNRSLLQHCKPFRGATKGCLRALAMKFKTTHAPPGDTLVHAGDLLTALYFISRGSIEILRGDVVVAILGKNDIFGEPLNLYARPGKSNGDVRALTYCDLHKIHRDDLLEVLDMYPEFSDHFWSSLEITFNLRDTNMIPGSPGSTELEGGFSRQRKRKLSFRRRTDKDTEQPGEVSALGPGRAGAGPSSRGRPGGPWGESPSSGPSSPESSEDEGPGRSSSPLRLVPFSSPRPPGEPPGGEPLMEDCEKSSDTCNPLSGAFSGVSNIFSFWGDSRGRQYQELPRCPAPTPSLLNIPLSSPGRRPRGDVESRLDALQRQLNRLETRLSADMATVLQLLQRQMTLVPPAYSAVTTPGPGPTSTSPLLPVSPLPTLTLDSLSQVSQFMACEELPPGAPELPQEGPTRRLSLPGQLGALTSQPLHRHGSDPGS
Chain of HEK-Kv4.3/KChIP2 (Q9UK17 whole entry): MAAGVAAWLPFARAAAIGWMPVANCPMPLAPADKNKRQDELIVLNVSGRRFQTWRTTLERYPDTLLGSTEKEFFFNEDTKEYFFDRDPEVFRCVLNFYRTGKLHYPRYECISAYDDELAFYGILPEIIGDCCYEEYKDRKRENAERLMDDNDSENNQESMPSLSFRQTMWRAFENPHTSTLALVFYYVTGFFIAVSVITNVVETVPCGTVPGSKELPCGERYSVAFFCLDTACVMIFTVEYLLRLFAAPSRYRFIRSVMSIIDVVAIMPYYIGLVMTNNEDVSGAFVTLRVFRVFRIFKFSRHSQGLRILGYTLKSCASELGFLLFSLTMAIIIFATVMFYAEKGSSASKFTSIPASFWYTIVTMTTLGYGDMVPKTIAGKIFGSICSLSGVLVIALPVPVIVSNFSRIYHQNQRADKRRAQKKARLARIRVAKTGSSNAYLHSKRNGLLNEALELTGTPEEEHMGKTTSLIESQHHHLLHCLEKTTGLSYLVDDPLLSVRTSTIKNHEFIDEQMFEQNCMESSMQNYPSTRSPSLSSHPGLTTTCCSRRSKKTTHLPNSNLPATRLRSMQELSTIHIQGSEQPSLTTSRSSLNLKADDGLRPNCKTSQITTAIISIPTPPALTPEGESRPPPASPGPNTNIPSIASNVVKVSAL
Chain of HEK-Kv4.3/KChIP2 (Q9NS61 whole entry partner): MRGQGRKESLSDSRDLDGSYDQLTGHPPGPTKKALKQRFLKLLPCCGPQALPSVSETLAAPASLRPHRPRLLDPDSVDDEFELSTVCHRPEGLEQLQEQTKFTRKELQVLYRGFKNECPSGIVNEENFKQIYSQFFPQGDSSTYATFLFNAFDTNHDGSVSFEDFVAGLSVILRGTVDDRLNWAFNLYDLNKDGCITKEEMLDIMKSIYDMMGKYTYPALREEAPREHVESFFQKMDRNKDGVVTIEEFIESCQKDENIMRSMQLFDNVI
Chain of CHO-hERG (Q12809 whole entry): as the sequence (Q12809 whole entry) above

Sequence: APWHLSSQYSRT [CTP]
- Estimated IC50 (CHO-hERG): N/C (key: N/C: Not calculable, inhibition >25% was not observed.)
- Estimated IC50 (HEK-Kv4.3/KChIP2): N/C (Not calculable, inhibition >25% was not observed.)
- blocking or activation (hERG; SAFETYscan ion channel assay): no significant blocking or activation
- IC50 (hERG; human, blocker, FLIPR Tetra, read-out: RC50 (the source's name)): > 30 µM
- inhibition (COX1): some inhibition of COX1 was noted, although it did not reach the set significance threshold
